The source of these data is the supplement of paper PMC8837787.

Where a name gives a salt, the structure may show the parent alone.

For this assay, the system named is Saccharomyces cerevisiae ABC16-Green Monster. The conditions noted are these: 18 h; 30 °C; YPD. The gist of the method:
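Growth of the drug-sensitive yeast strain S. cerevisiae ABC16-Green Monster was followed by OD600 at 0 h and 18 h after log-phase YPD cultures (200 µl per well, 96-well plates) were exposed at 30 °C to compound at final concentrations of 0.1–150 μM in eight 1:2 steps, in biological duplicate. Untreated cultures were run in parallel. Background-subtracted readings were fitted in GraphPad Prism with a variable-slope log(inhibitor) versus response model to give IC50.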

`CCC(C)CC(C)CCCCCCCCC(=O)NC1CC(O)C(NCCN)NC(=O)C2C(O)CCN2C(=O)C(C(O)CCN)NC(=O)C(C(O)C(O)c2ccc(O)cc2)NC(=O)C2CC(O)CN2C(=O)C(C(C)O)NC1=O` (stereo not drawn) [Caspofungin] yielded an IC50 growth inhibition of 0.0305 µM.

`CN1CCCN=C1C=Cc1cccs1.O=C(O)c1cc2ccccc2c(Cc2c(O)c(C(=O)O)cc3ccccc23)c1O` [Pyrantal Pamoate]: the IC50 growth inhibition was above 75 µM.

Consider `O=C(c1c[nH]c(-c2ccnc(N3CCCC3)c2)c1)c1ccccc1O`, for which the IC50 growth inhibition was found to be 60.6 µM.

As for `CCCC(CCC)C(=O)O` [Valproic acid], the IC50 growth inhibition is above 75 µM.

With `Cc1nc([P+](c2ccccc2)(c2ccccc2)c2ccccc2)c(SCc2ccccc2)o1` [GNF-Pf-3891], the IC50 growth inhibition came out at 5.85 µM.

As for `O=C(NCCc1ccccc1)c1cc(-c2cccnc2)cnc1NCC1CC1`, the IC50 growth inhibition was 15.9 µM.

The molecule `Cc1ccc(-c2nc(CN(Cc3ccccn3)C(C)C)cs2)o1` returned an IC50 growth inhibition of 12 µM.

The molecule `COc1ccc2cc(CN(C)CC(=O)Nc3sccc3C(N)=O)ccc2c1` yielded an IC50 growth inhibition of 60.6 µM.

`Clc1cccc(Nc2ncc(-c3ccc4c(c3)OCCCO4)s2)c1` gave an IC50 growth inhibition of 15.4 µM.

Take `O=C(CCCCCCC(=O)Nc1ccccc1)NO` [Vorinostat]: the IC50 growth inhibition was above 75 µM.

In the case of `C[C@]1(O)C[C@@H](c2nc(-c3ccc4ccc(-c5ccccc5)nc4c3)c3c(N)nccn32)C1` [Linsitinib], the IC50 growth inhibition was found to be 16 µM.

`Cc1cc(Cl)ccc1OCc1nnc(-c2ccccn2)[nH]1` gave an IC50 growth inhibition of 20.7 µM.

Turning to `Cn1cc(CN2CCc3c(c(C(=O)NCc4nccs4)nn3Cc3ccccc3)C2)c2ccccc21`, the IC50 growth inhibition was 109 µM.

Regarding `N#CC(c1ccc(Cl)cc1)c1c(Cl)cc(-n2ncc(=O)[nH]c2=O)cc1Cl` (stereo not drawn) [Diclazuril], the IC50 growth inhibition turned out to be 68.5 µM.

In turn, `CN1CCN(c2ccccc2NC(=O)c2cccc(Oc3ccccc3)c2)CC1` gave an IC50 growth inhibition of 98.9 µM.

Turning to `c1cc2c(cc1C1=NNC(=NC3CC3)SC1)CCCC2`, the IC50 growth inhibition worked out at 50.8 µM.

Molecule `CN(C)CCC=C1c2ccccc2CCc2ccccc21` [Amitriptyline] showed an IC50 growth inhibition of 56.8 µM.

Regarding `O=C1CCC(N2C(=O)c3ccccc3C2=O)C(=O)N1` (stereo not drawn) [Thalidomide], the IC50 growth inhibition was above 75 µM.

For the molecule `COC1CC2CCC(C)C(O)(O2)C(=O)C(=O)N2CCCCC2C(=O)OC(C(C)CC2CCC(OCCO)C(OC)C2)CC(=O)C(C)C=C(C)C(O)C(OC)C(=O)C(C)CC(C)C=CC=CC=C1C` (stereo not drawn) [Everolimus], the IC50 growth inhibition came out at 0.0415 µM.

Consider `CC(=O)NCC1CN(c2ccc(N3CCSCC3)c(F)c2)C(=O)O1` (stereo not drawn) [Sutezolid], for which the IC50 growth inhibition was above 75 µM.

In turn, `CCS(=O)(=O)N1CCN(c2ccc(Nc3ncc(C(N)=O)c(NC4CC4)n3)cc2)CC1` [Cerdulatinib] had an IC50 growth inhibition of 8.06 µM.

The molecule `O=C1N=c2ccccc2=C1NNC(=S)N1CCOCC1` registered an IC50 growth inhibition of 16.4 µM.

With `COc1cc(OC)cc(C(=O)NCC2Cc3cc(Cl)cc(-c4ccncc4)c3O2)c1` (stereo not drawn), the IC50 growth inhibition was found to be 14.4 µM.

The molecule `CC(C)=CCC/C(C)=C\CNCCNC1C2CC3CC(C2)CC1C3` (stereo not drawn) yielded an IC50 growth inhibition of 18.2 µM.

In turn, `Cc1c(C(=O)Nc2ccccc2O)cnn1-c1cccc(C(F)(F)F)c1` gave an IC50 growth inhibition of 23.9 µM.

Regarding `COc1ccc(-c2onc(C(F)(F)F)c2-c2ccc(Cl)cc2)c(O)c1`, the IC50 growth inhibition stood at 48.6 µM.

In the case of `CC1CCC2C(C)C(=O)OC3OC4(C)CCC1C32OO4` (stereo not drawn) [Artemisinin], the IC50 growth inhibition was determined as 34.3 µM.

The molecule `Cc1[nH]c2ccccc2c(=O)c1CC=C(Cl)Cl` [GNF-Pf-4439] yielded an IC50 growth inhibition above 150 µM.

`O=C1c2ccccc2C2=Nc3ccccc3SC(c3cccc(F)c3)C12` (stereo not drawn) displayed an IC50 growth inhibition of 1.68 µM.

`CSc1ccccc1C(=O)Nc1nc(-c2ccccn2)cs1` gave an IC50 growth inhibition of 10.8 µM.

`OC(Cn1cncn1)(Cn1cncn1)c1ccc(F)cc1F` [Fluconazole] registered an IC50 growth inhibition of 3.14 µM.

`CC[C@@H]([C@H](C)O)n1ncn(-c2ccc(N3CCN(c4ccc(OC[C@@H]5CO[C@@](Cn6cncn6)(c6ccc(F)cc6F)C5)cc4)CC3)cc2)c1=O`: the IC50 growth inhibition amounted to 50 µM.

Molecule `FC(F)(F)c1ccc(N(c2cccnc2)C2CCN(c3ccc(C(F)(F)F)cn3)CC2)cc1` came in with an IC50 growth inhibition of 40 µM.

Molecule `C[C@H](c1ccc2c(c1)CCCC2)N(C)c1ncc2c(N)nc(N)nc2n1` showed an IC50 growth inhibition of 30.5 µM.

With `COC(=O)C1=C(C)NC(C)=C(C(=O)OCC(C)C)C1c1ccccc1[N+](=O)[O-]` (stereo not drawn) [Nisoldipine], the IC50 growth inhibition is 41 µM.

On to `CC(Oc1ccc(Cl)cc1Cl)c1nc(-c2ccc(NC(=O)c3ccco3)cc2)no1` (stereo not drawn) [GNF-Pf-3333], for which the IC50 growth inhibition turned out to be 2.8 µM.

`CCC1C=CC=CCC(C)C(O)C(C)(O)C(=O)C(C)C(O)C(C)C(=O)C(C)C(O)C(C)C=CC(=O)OC2C(C)C(CC1)OC1(CCC(C)C(CC(C)O)O1)C2C` (stereo not drawn) [Oligomycin] displayed an IC50 growth inhibition above 75 µM.

Turning to `CC(=O)Nc1cccc(-n2c(=O)n(C3CC3)c(=O)c3c(Nc4ccc(I)cc4F)n(C)c(=O)c(C)c32)c1` [Trametinib], the IC50 growth inhibition was above 75 µM.

Consider `Cc1ccc(Oc2ccc(NC(=O)CNc3ccccc3N3CCCC3=O)cc2)cc1`, for which the IC50 growth inhibition was determined as 31.5 µM.

In the case of `CN[C@H]1C[C@@H](N)[C@H](O)[C@@H](O[C@@H]2O[C@H](CO)[C@H](O)[C@@H]3O[C@@]4(O[C@H]23)O[C@H]([C@H](N)CO)[C@H](O)[C@H](O)[C@H]4O)[C@@H]1O` [Hygromycin B], the IC50 growth inhibition was 13.8 µM.

Consider `CNc1ncc2cc(-c3cc(NC(=O)NCCC(C)(C)C)c(F)cc3C)c(C)nc2n1` [DP-4978], for which the IC50 growth inhibition was above 150 µM.

For the molecule `CCCc1nn(C)c2c(=O)nc(-c3cc(S(=O)(=O)N4CCN(C)CC4)ccc3OCC)[nH]c12` [Sildenafil citrate], the IC50 growth inhibition is above 75 µM.

In turn, `CC(c1cc(Cl)cc(Cl)c1)N(C)c1ncc2c(N)nc(N)nc2n1` (stereo not drawn) had an IC50 growth inhibition of 40.1 µM.

In the case of `Clc1ccccc1-c1nc([P+](c2ccccc2)(c2ccccc2)c2ccccc2)c(N2CCOCC2)o1` [GNF-PF-2863], the IC50 growth inhibition was 8.55 µM.

`Nc1[nH]c(=O)ncc1F` [Flucytosine] yielded an IC50 growth inhibition of 15.1 µM.

`COc1ccc(Oc2ccc([C@@H](C)N(C)c3ncc4c(N)nc(N)nc4n3)cc2)cc1` gave an IC50 growth inhibition of 30.5 µM.

Take `CCCCc1oc2ccccc2c1C(=O)c1cc(I)c(OCCN(CC)CC)c(I)c1` [Amiodarone]: the IC50 growth inhibition was determined as 5.72 µM.

On to `COc1ccc(C2CC(=O)C3=C(C2)NC(C)=C(C(=O)OC2CCCC2)C3c2ccc([N+](=O)[O-])cc2)cc1OC` (stereo not drawn) [GNF-Pf-5639], for which the IC50 growth inhibition turned out to be 9.8 µM.

Regarding `Cc1ccc2nc3ccccc3c(N3CCN(C(=O)c4ccccc4)CC3)c2c1`, the IC50 growth inhibition turned out to be 6.15 µM.

`CC(C(=O)O)c1ccc2c(c1)[nH]c1ccc(Cl)cc12` (stereo not drawn) [Carprofen] yielded an IC50 growth inhibition above 75 µM.

`CC1(COc2ccc(N3CCC(Oc4ccc(OC(F)(F)F)cc4)CC3)cc2)Cn2cc([N+](=O)[O-])nc2O1` (stereo not drawn) [Delamanid] gave an IC50 growth inhibition above 75 µM.

For `CC(C)(C)c1ccc(C(=N)NOC(=O)c2sccc2Cl)cc1`, the IC50 growth inhibition is 8.34 µM.

Turning to `O=C(CC1NCCCC1O)Cn1cnc2ccccc2c1=O` (stereo not drawn) [Febrifugine], the IC50 growth inhibition is above 75 µM.

Molecule `CC(C)Sc1cccc(C(=O)Nc2nnc(-c3ccnn3C(C)C)o2)c1` [CBR113] yielded an IC50 growth inhibition of 2.48 µM.

With `CCCCc1ccc(C(=O)Nc2nccc3ccccc23)nc1`, the IC50 growth inhibition stood at 54.7 µM.

Molecule `O=C(c1ccco1)N(CCCn1ccnc1)c1nc2c(Cl)cccc2s1` yielded an IC50 growth inhibition of 40.8 µM.

In turn, `CCOC(=O)Nc1ccc(NCc2ccc(F)cc2)cc1N` [Retigabine] returned an IC50 growth inhibition above 75 µM.

Take `CCC(=C(c1ccccc1)c1ccc(OCCN(C)C)cc1)c1ccccc1` [Tamoxifen]: the IC50 growth inhibition is 3.13 µM.

Molecule `Clc1cccc(C(c2ccc(CN3CCNCC3)cc2)n2ccnc2)c1` (stereo not drawn) showed an IC50 growth inhibition of 28.7 µM.

As to `COc1ccc(Cn2cnc3c(-c4ccco4)nc(Cl)nc32)cc1`, the IC50 growth inhibition is 51.6 µM.

In the case of `COc1cc(NC(C)CCCN)c2ncccc2c1` (stereo not drawn) [Primaquine], the IC50 growth inhibition was 107 µM.

Consider `COC=C(C(=O)OC)c1ccccc1Oc1cc(Oc2ccccc2C#N)ncn1` [Azoxystrobin], for which the IC50 growth inhibition was above 75 µM.

Regarding `O=C(Nc1ccc2c(c1)B(O)OC2)c1ccccc1C(F)(F)F`, the IC50 growth inhibition stood at 1.72 µM.

As to `Cc1nc2ccccc2nc1SC(C)C(=O)c1c[nH]c2ccccc12` (stereo not drawn), the IC50 growth inhibition worked out at 33.8 µM.

On to `CCn1nc(-c2ccc(C(=O)OC)cc2)nc2c(=O)n(C)c(=O)nc1-2`, for which the IC50 growth inhibition worked out at 0.601 µM.

Turning to `CCc1ccc(Nc2cc(C)c3ccc(O)cc3n2)cc1`, the IC50 growth inhibition is 2.09 µM.

For the molecule `COc1ccc2sc(N(Cc3cccnc3)C(=O)c3ccc(C#N)cc3)nc2c1`, the IC50 growth inhibition amounted to 3.85 µM.

Turning to `CCC1(O)C(=O)OCc2c1cc1n(c2=O)Cc2cc3c(CN(C)C)c(O)ccc3nc2-1` (stereo not drawn) [Topotecan], the IC50 growth inhibition is above 75 µM.

For the molecule `CCC(C)C1OC2(CCC1C)CC1CC(CC=C(C)C(OC3CC(OC)C(OC4CC(OC)C(O)C(C)O4)C(C)O3)C(C)C=CC=C3COC4C(O)C(C)=CC(C(=O)O1)C34O)O2` (stereo not drawn) [Ivermectin], the IC50 growth inhibition was above 75 µM.

The molecule `Cc1cc(NC(=O)C(C)C)n(-c2nc(C)c(C)c(=O)[nH]2)n1` displayed an IC50 growth inhibition of 3.87 µM.

`c1ccc(CNc2nc(Nc3ccccc3)nc3ccccc23)cc1` gave an IC50 growth inhibition of 8.62 µM.

Molecule `CC(C)c1cc(NCc2ccccn2)n2ncc(-c3ccccc3)c2n1` came in with an IC50 growth inhibition of 0.45 µM.

The molecule `CNC1CC2OC(C)(C1OC)n1c3ccccc3c3c4c(c5c6ccccc6n2c5c31)C(=O)NC4` (stereo not drawn) [Staurosporine] returned an IC50 growth inhibition of 0.206 µM.
